Experimental data from ChEMBL document CHEMBL4406879, “A mouse model-based screening platform for the identification of immune activating compounds such as natural products for novel cancer immunotherapies” (Bioorg Med Chem, 2019).
The source made the active and inactive calls. The rule behind the calls is not given here.

Legend:
Dendritic cell [1] = assay: Immunostimulatory activity in GM-CSF-cultured bone marrow-derived dendritic cells isolated from get40 cytokine reporter mouse model assessed as induction of IL12p40 production at 0.1 to 10 uM incubated for 16 hrs in presence of LPS by flow cytometry relative to control; format: functional
Ramos = assay: Cytotoxicity against human Ramos cells; format: functional, cell-based
Jurkat = assay: Cytotoxicity against human Jurkat cells; format: functional, cell-based
Dendritic cell [2] = assay: Immunostimulatory activity in GM-CSF-cultured bone marrow-derived dendritic cells isolated from get40 cytokine reporter mouse model assessed as induction of IL12p40 production at 0.1 to 10 uM incubated for 16 hrs in presence of CpG 2216 by flow cytometry relative to control; format: functional
Bone marrow cell [3] = assay: Cytotoxicity against GM-CSF-cultured mouse cDC-rich bone marrow cells assessed as cell viability at 1 to 10 uM incubated for 24 hrs by MTT assay; format: cell-based
Mus musculus [4] = species on record: Mus musculus; assay: (§1) Immunostimulatory activity in CD4-positive T cells isolated from OVA-specific OT-II TCR transgenic mouse model assessed as T cell activation by measuring increase in IL-2 production at 1 uM compound incubated with GM-CSF cultured mouse bone marrow cells in presence of CpG 2216 for 24 hrs followed by addition of isolated CD4+ T cells and further incubation for 5 days by ELISA; format: functional, cell-based
Dendritic cell [5] = assay: Immunostimulatory activity in GM-CSF-cultured bone marrow-derived dendritic cells isolated from get40 cytokine reporter mouse model assessed as induction of IL12p40 production at 0.1 to 10 uM incubated for 16 hrs by flow cytometry relative to control; format: functional
Bone marrow cell [6] = assay: Cytotoxicity against M-CSF-cultured mouse macrophage-rich bone marrow cells assessed as cell viability at 1 to 10 uM incubated for 24 hrs by MTT assay; format: cell-based
Bone marrow cell [7] = assay: Cytotoxicity against Flt3L-cultured mouse pDC-rich bone marrow cells assessed as cell viability at 1 to 10 uM incubated for 24 hrs by MTT assay; format: cell-based
Mus musculus [8] = species on record: Mus musculus; assay: as §1, with “10” for “1”, “cells” for “cells in presence of CpG 2216”; format: functional, cell-based
[9] = test system: Mycobacterium tuberculosis; assay: Antibacterial activity against Mycobacterium tuberculosis; format: functional, organism-based

Compound	fold change (FC) (Dendritic cell [1])	Activity (Ramos)	Activity (Jurkat)	fold change (FC) (Dendritic cell [2])	Activity (Bone marrow cell [3])	Activity (Mus musculus [4])	fold change (FC) (Dendritic cell [5])	Activity (Bone marrow cell [6])	Activity (Bone marrow cell [7])	Activity (Mus musculus [8])	Activity [9]
C=C1[C@@H](C)[C@H]2[C@H](Cc3ccccc3)NC(=O)[C@]23[C@H](OC(C)=O)/C=C/[C@@H](C)C[C@@H](C)C/C=C/[C@H]3[C@@H]1O	2	Active	Active	2	Non-Toxic	Active	2	Non-Toxic	Non-Toxic	–	–
[O-][n+]1ccc2c([nH]c3ccccc32)c1C1=C[C@@]2(O)CC/C=C\CCCCN3CC[C@@H]1[C@]1(CC/C=C\CCCCN[C@H]12)C3	2	Active	Active	2	Non-Toxic	–	2	Non-Toxic	Non-Toxic	inactive	Active
C=C1[C@@H](C)[C@H]2[C@H](Cc3ccccc3)NC(=O)[C@]23[C@H](OC(C)=O)/C=C/[C@@](C)(O)C(=O)[C@@H](C)C/C=C/[C@H]3[C@@H]1O [CYTOCHALASIN D]	2	Active	Active	2	Non-Toxic	Active	2	Non-Toxic	Non-Toxic	–	–
